System: diarrhea-predominant IBS subjects
Assay: 3007 Study: open-label 52-week safety study, adverse events and withdrawals
[1] = Cilansetron 2 mg/Cilansetron 2 mg

Cc1nccn1C[C@H]1CCc2c(c3cccc4c3n2CCC4)C1=O [cilansetron, (R)-(−)-4,5,6,8,9,10-hexahydro-10-[(2-methyl-1H-imidazol-1-yl)methyl]-11H-pyrido-[3,2,1-jk]-carbazol-11-one]
TEAE: Vulvovaginal Signs and Symptoms* (C/C group): 1 (<1%) n (%) | TEAE: Wheezing (C/C group): 1 (<1%) n (%) | TEAE: Abdominal Discomfort [1]: 1 (<1%) n (%) | TEAE: Abdominal Distension [1]: 9 (4%) n (%) | TEAE: Abdominal Pain Aggravated [1]: 4 (2%) n (%) | TEAE: Abdominal Pain Lower [1]: 4 (2%) n (%) | TEAE: Abdominal Pain NOS [1]: 14 (5%) n (%) | TEAE: Abdominal Pain Upper [1]: 7 (3%) n (%) | TEAE: Abdominal Rebound Tenderness [1]: 1 (<1%) n (%) | TEAE: Abdominal Tenderness [1]: 9 (4%) n (%) | TEAE: Abnormal Reflexes [1]: 1 (<1%) n (%) | TEAE: Alanine Aminotransferase Increased [1]: 8 (3%) n (%) | TEAE: Anal and Rectal Disorders NEC [1]: 0 n (%) | TEAE: Anal and Rectal Pains [1]: 0 n (%) | TEAE: Anal and Rectal Signs and Symptoms [1]: 1 (<1%) n (%) | TEAE: Animal Bite [1]: 0 n (%) | TEAE: Appendicitis [1]: 1 (<1%) n (%) | TEAE: Arthralgia [1]: 10 (4%) n (%) | TEAE: Arthritis NOS [1]: 3 (1%) n (%) | TEAE: Arthritis NOS Aggravated [1]: 1 (<1%) n (%) | TEAE: Arthropathies NEC [1]: 5 (2%) n (%) | TEAE: Arthropod Bite [1]: 1 (<1%) n (%) | TEAE: Arthropod Sting [1]: 0 n (%) | TEAE: Aspartate Aminotransferase Increased [1]: 4 (2%) n (%) | TEAE: Back Injury NOS [1]: 3 (1%) n (%) | TEAE: Back Pain [1]: 12 (5%) n (%) | TEAE: Back Pain Aggravated [1]: 2 (<1%) n (%) | TEAE: Bacteria Identification and Serology (Excl Mycobacteria) [1]: 1 (<1%) n (%) | TEAE: Bilirubin Urine [1]: 1 (<1%) n (%) | TEAE: Bladder Infection NOS [1]: 0 n (%) | TEAE: Blood Alkaline Phosphatase NOS Increased [1]: 2 (<1%) n (%) | TEAE: Blood Bilirubin Increased [1]: 2 (<1%) n (%) | TEAE: Blood Cholesterol Increased [1]: 11 (4%) n (%) | TEAE: Blood Creatine Phosphokinase Increased [1]: 19 (7%) n (%) | TEAE: Blood Creatine Phosphokinase Mb Increased [1]: 1 (<1%) n (%) | TEAE: Blood Creatinine Increased [1]: 1 (<1%) n (%) | TEAE: Blood Glucose Increased [1]: 2 (<1%) n (%) | TEAE: Blood Potassium Increased [1]: 1 (<1%) n (%) | TEAE: Blood Pressure Increased [1]: 3 (1%) n (%) | TEAE: Blood Sodium Increased [1]: 1 (<1%) n (%) | TEAE: Blood Triglycerides Increased [1]: 6 (2%) n (%) | TEAE: Blood Uric Acid Increased [1]: 2 (<1%) n (%) | TEAE: Blood Urine Present [1]: 6 (2%) n (%) | TEAE: Blood in Stool [1]: 4 (2%) n (%) | TEAE: Bone Density Decreased [1]: 0 n (%) | TEAE: Bone Disorder NOS [1]: 1 (<1%) n (%) | TEAE: Bone Disorders NEC [1]: 1 (<1%) n (%) | TEAE: Bone Injury [1]: 1 (<1%) n (%) | TEAE: Bone Spur [1]: 0 n (%) | TEAE: Bronchitis Acute NOS [1]: 2 (<1%) n (%) | TEAE: Bronchitis NOS [1]: 18 (7%) n (%) | TEAE: Bronchopneumonia NOS [1]: 0 n (%) | TEAE: Bunion [1]: 2 (<1%) n (%) | TEAE: Bursal Disorders [1]: 3 (1%) n (%) | TEAE: Bursitis [1]: 1 (<1%) n (%) | TEAE: Candida Infections [1]: 2 (<1%) n (%) | TEAE: Candidal Infection NOS [1]: 1 (<1%) n (%) | TEAE: Carbohydrate Tolerance Analyses (Incl Diabetes) [1]: 2 (<1%) n (%) | TEAE: Cardiac Auscultatory Investigations [1]: 1 (<1%) n (%) | TEAE: Cardiac Murmur NOS [1]: 1 (<1%) n (%) | TEAE: Carotid Bruit [1]: 0 n (%) | TEAE: Carpal Tunnel Syndrome [1]: 2 (<1%) n (%) | TEAE: Cartilage Disorder NOS [1]: 1 (<1%) n (%) | TEAE: Cartilage Disorders [1]: 1 (<1%) n (%) | TEAE: Cellulitis [1]: 0 n (%) | TEAE: Cervical Spasm [1]: 1 (<1%) n (%) | TEAE: Change in Bowel Habit NOS [1]: 0 n (%) | TEAE: Chapped Lips [1]: 0 n (%) | TEAE: Chest Wall Pain [1]: 0 n (%) | TEAE: Cholesterol Analyses [1]: 11 (4%) n (%) | TEAE: Colitis (Excl Infective) [1]: 0 n (%) | TEAE: Colitis Ischaemic [1]: 0 n (%) | TEAE: Colonic Polyp [1]: 1 (<1%) n (%) | TEAE: Connective Tissue Disorders (Excl Le) [1]: 2 (<1%) n (%) | TEAE: Constipation [1]: 66 (26%) n (%) | TEAE: Cystitis NOS [1]: 1 (<1%) n (%) | TEAE: Dental Disorders NEC [1]: 1 (<1%) n (%) | TEAE: Dental Infections - Pathogen Class Unspecified [1]: 9 (4%) n (%) | TEAE: Dental Pain and Sensation Disorders [1]: 2 (<1%) n (%) | TEAE: Diaphragmatic Hernias [1]: 2 (<1%) n (%) | TEAE: Diarrhoea (Excl Infective) [1]: 24 (9%) n (%) | TEAE: Diarrhoea Aggravated [1]: 3 (1%) n (%) | TEAE: Diarrhoea Haemorrhagic [1]: 0 n (%) | TEAE: Diarrhoea NOS [1]: 22 (9%) n (%) | TEAE: Disturbances in Consciousness NEC [1]: 3 (1%) n (%) | TEAE: Diverticulitis NOS [1]: 1 (<1%) n (%) | TEAE: Diverticulum Inflammations [1]: 1 (<1%) n (%) | TEAE: Dizziness [1]: 4 (2%) n (%) | TEAE: Dry Mouth [1]: 1 (<1%) n (%) | TEAE: Dysarthria [1]: 0 n (%) | TEAE: Dyskinesias and Movement Disorders NEC [1]: 0 n (%) | TEAE: Dyspepsia [1]: 6 (2%) n (%) | TEAE: Dyspepsia Aggravated [1]: 2 (<1%) n (%) | TEAE: Dyspeptic Signs and Symptoms [1]: 10 (4%) n (%) | TEAE: ECG Investigations [1]: 1 (<1%) n (%) | TEAE: Ear Infection NOS [1]: 2 (<1%) n (%) | TEAE: Ear Infections [1]: 2 (<1%) n (%) | TEAE: Electrocardiogram Qrs Complex Abnormal [1]: 1 (<1%) n (%) | TEAE: Electrocardiogram T Wave Inversion [1]: 0 n (%) | TEAE: Enteritis [1]: 0 n (%) | TEAE: Epigastric Discomfort [1]: 0 n (%) | TEAE: Eructation [1]: 2 (<1%) n (%) | TEAE: Eye Injuries NEC [1]: 1 (<1%) n (%) | TEAE: Faecal Abnormality NOS [1]: 1 (<1%) n (%) | TEAE: Faecal Impaction [1]: 0 n (%) | TEAE: Faecal Incontinence [1]: 1 (<1%) n (%) | TEAE: Faecal Occult Blood Positive [1]: 23 (9%) n (%) | TEAE: Faeces Abnormal [1]: 2 (<1%) n (%) | TEAE: Faeces Hard [1]: 1 (<1%) n (%) | TEAE: Fibromyalgia [1]: 1 (<1%) n (%) | TEAE: Flatulence [1]: 16 (6%) n (%) | TEAE: Flatulence, Bloating and Distension [1]: 23 (9%) n (%) | TEAE: Food Poisoning NOS [1]: 1 (<1%) n (%) | TEAE: Foot Fracture [1]: 1 (<1%) n (%) | TEAE: Fractures and Dislocations NEC [1]: 1 (<1%) n (%) | TEAE: Frequent Bowel Movements [1]: 1 (<1%) n (%) | TEAE: Fungal Infection NOS [1]: 2 (<1%) n (%) | TEAE: Fungal Infections NEC [1]: 4 (2%) n (%) | TEAE: Gamma-Glutamyltransferase Increased [1]: 5 (2%) n (%) | TEAE: Gastric Irritation [1]: 1 (<1%) n (%) | TEAE: Gastritis (Excl Infective) [1]: 3 (1%) n (%) | TEAE: Gastritis NOS [1]: 3 (1%) n (%) | TEAE: Gastroenteritis NOS [1]: 4 (2%) n (%) | TEAE: Gastroenteritis Viral NOS [1]: 5 (2%) n (%) | TEAE: Gastrointestinal Atonic and Hypomotility Disorders NEC [1]: 70 (27%) n (%) | TEAE: Gastrointestinal Disorders [1]: 134 (52%) n (%) | TEAE: Gastrointestinal Disorders NEC [1]: 1 (<1%) n (%) | TEAE: Gastrointestinal Dyskinetic Disorders [1]: 2 (<1%) n (%) | TEAE: Gastrointestinal Histopathology Procedures [1]: 25 (10%) n (%) | TEAE: Gastrointestinal Infections - Pathogen Class Unspecified [1]: 4 (2%) n (%) | TEAE: Gastrointestinal Inflammatory Disorders NEC [1]: 1 (<1%) n (%) | TEAE: Gastrointestinal Motility Disorder NOS [1]: 2 (<1%) n (%) | TEAE: Gastrointestinal Mucosal Dystrophies and Secretion Disorders [1]: 1 (<1%) n (%) | TEAE: Gastrointestinal Signs and Symptoms NEC [1]: 2 (<1%) n (%) | TEAE: Gastrointestinal Spastic and Hypermotility Disorders [1]: 5 (2%) n (%) | TEAE: Gastrointestinal and Abdominal Pains (Excl Oral and Throat) [1]: 36 (14%) n (%) | TEAE: Gingival Abscess [1]: 2 (<1%) n (%) | TEAE: Gingival Atrophy [1]: 1 (<1%) n (%) | TEAE: Gingival Disorders NEC [1]: 1 (<1%) n (%) | TEAE: Gingival Pain [1]: 1 (<1%) n (%) | TEAE: Gingival Pains [1]: 1 (<1%) n (%) | TEAE: Gingivitis [1]: 0 n (%) | TEAE: Gingivitis Infection NOS [1]: 1 (<1%) n (%) | TEAE: Glucose Urine Present [1]: 1 (<1%) n (%) | TEAE: Groin Pain [1]: 1 (<1%) n (%) | TEAE: Haematocrit Decreased [1]: 1 (<1%) n (%) | TEAE: Haemoglobin Decreased [1]: 1 (<1%) n (%) | TEAE: Haemorrhoidal Haemorrhage [1]: 2 (<1%) n (%) | TEAE: Haemorrhoids [1]: 4 (2%) n (%) | TEAE: Haemorrhoids Aggravated [1]: 0 n (%) | TEAE: Haemorrhoids and Gastrointestinal Varices (Excl Oesophageal) [1]: 6 (2%) n (%) | TEAE: Halitosis [1]: 1 (<1%) n (%) | TEAE: Headache NOS [1]: 19 (7%) n (%) | TEAE: Headache NOS Aggravated [1]: 3 (1%) n (%) | TEAE: Headaches NEC [1]: 25 (10%) n (%) | TEAE: Heart Rate Increased [1]: 1 (<1%) n (%) | TEAE: Heart Rate and Pulse Investigations [1]: 1 (<1%) n (%) | TEAE: Heat Exhaustion [1]: 1 (<1%) n (%) | TEAE: Heat Injuries (Excl Thermal Burns) [1]: 1 (<1%) n (%) | TEAE: Helicobacter Pylori Antibody Positive [1]: 1 (<1%) n (%) | TEAE: Herpes Simplex [1]: 2 (<1%) n (%) | TEAE: Herpes Simplex Aggravated [1]: 1 (<1%) n (%) | TEAE: Herpes Viral Infections [1]: 3 (1%) n (%) | TEAE: Herpes Zoster [1]: 0 n (%) | TEAE: Hiatus Hernia [1]: 2 (<1%) n (%) | TEAE: Hyperreflexia [1]: 1 (<1%) n (%) | TEAE: Hypoaesthesia [1]: 1 (<1%) n (%) | TEAE: Infected Varicose Vein [1]: 1 (<1%) n (%) | TEAE: Infections NEC [1]: 3 (1%) n (%)

From US20070093520A1, “Method of treatment of diarrhea-predominant irritable bowel syndrome in a subject” (priority 2005, published 2007)
